# Results from patent US20240076347A1, “METHODS FOR PREVENTING FUNGAL INFECTIONS” (Cidara Therapeutics, Inc., priority 2016, published 2024).
# Read-outs that look alike come from different tables or passages of the source. Numbered stars: 1 amine (or outer) side, 2 acyl side, 3 side chain; on linkers, the order of the positions; unused ones are H or OH. Bridge positions count the residues as written; N and C are the ends. Square brackets hold non-standard residues; d marks the D form. Peptide text beside a SMILES is read from it. * marks the point of attachment. ξ: configuration not given here. Orn(4R-OH,5R-OCH2CH2NMe3+) = C[N+](C)(C)CCO[C@@H](N[*:3])[C@H](O)C[C@H](N[*:1])C(=O)[*:2]; pTerphenylCO(4''-OnC5H11) = CCCCCOc1ccc(-c2ccc(-c3ccc(C(=O)*)cc3)cc2)cc1; hTyr(3S-OH,4S-OH) = N[C@H](C(=O)O)[C@H](O)[C@@H](O)c1ccc(O)cc1; X1 = C[C@H]1CN([*:1])C(C(=O)[*:2])C1O; Hyp = O=C(O)[C@@H]1C[C@@H](O)CN1; ξT = CC(O)C(N)C(=O)O
# Key:
# [1] = tested on: C. glabrata; assay: In vitro susceptibility testing (CLSI M27-A3); format: cell-based, Candida glabrata; conditions: Nakaseomyces glabratus, 24 h
# Experimental: Strains. Ten clinical Candida strains were used for the in vivo treatment studies, including four C. albicans, three C. glabrata, and three C. parapsilosis strains (Table 18). This group was selected to encompass phenotypic variability in susceptibility to triazoles and echinocandins and based on similar fitness in the animal model as defined by the amount of growth in control animals over 24 h. The organisms were maintained, grown, and quantified on Sabouraud's dextrose agar (SDA) plates.
# In vitro susceptibility testing. All isolates were tested in accordance with the standards in CLSI document M27-A3. The MICs were determined visually after 24 h of incubation as the lowest concentration of drug that causes a significant diminution (≥50%) of growth compared to controls. MICs were determined on three separate occasions in duplicate.
# [2] = tested on: C. glabrata; assay: Neutropenic murine disseminated candidiasis model, PK/PD target determination; format: in vivo, Candida glabrata
# Experimental: Infection model. A neutropenic, murine, disseminated candidiasis model was used for the treatment studies. The mice were rendered neutropenic (polymorphonuclear cell count, <100/mm3) by injecting 150 mg/kg of cyclophosphamide (Mead Johnson Pharmaceuticals, Evansville, IN) subcutaneously 4 days before infection, 100 mg/kg of cyclophosphamide 1 day before infection, and additional cyclophosphamide doses (100 mg/kg) on Day 2 and Day 4 after infection to ensure neutropenia throughout the 168 h (7 d) study period. Three mice were included in each treatment and control group.
# The organisms were subcultured on SDA plates 24 h prior to infection. The inoculum was prepared by placing 3 to 5 colonies into 5 ml of sterile pyrogen-free 0.15 M NaCl warmed to 35° C. The final inoculum was adjusted to a 0.6 transmittance at 530 nm. The fungal count of the inoculum determined by viable counts on SDA was 6.1±0.2 log10 CFU/ml.
# Disseminated infection with the Candida strains was achieved by injection of 0.1 ml of the inoculum via the lateral tail vein 2 h prior to the start of antifungal therapy. At the end of the study period, the animals were sacrificed by CO2 asphyxiation. The kidneys of each mouse were aseptically removed and placed in 0.15 M NaCl at 4° C. The kidneys were homogenized and serially diluted 1:10, and the aliquots were plated onto SDA for viable fungal colony counts after incubation for 24 h at 35° C. The lower limit of detection was 100 CFU/ml. The results are expressed as the mean CFU/kidney for three mice.
# Treatment efficacy and pharmacodynamic target determination of CD101. Neutropenic mice were infected with one of 10 Candida strains as described above. […] Five dose levels that varied from 0.25 to 64 mg/kg were administered once in a 0.2-ml volume by IP route for the 168 h study period. Due to enhanced effect against single isolate, additional studies at 0.0156 and 0.0625 mg/kg was examined for C. glabrata 5592. Groups of three mice were used for each dosing regimen and control group. At the end of the treatment period (168 h), the mice were euthanized, and their kidneys were immediately processed for CFU determination as described above.
# Data analysis. A sigmoid dose-effect (Hill) model was used to measure the in vivo potency of CD101. The efficacy endpoints included the dose level required to produce a 24 h net static effect (no change in organism burden compared to that at the start of therapy) and the dose required to achieve a 1-log10 reduction in colony counts (relative to the burden at the start of therapy), when achieved. The maximum response (Emax) was measured as the difference in the number of CFU/kidney relative to that of the untreated control animals. The doses associated with the stasis and 1-log10 endpoint for each strain was calculated using the equation: log10 D=[log10 (E/(Emax−E))/N]+log10 ED50, where D is the drug dose, E is the control growth in untreated animals, Emax is the maximal effect, Nis the slope of the dose-response relationship, and ED50 is the dose needed to achieve 50% of the maximal effect. The associated AUC/MIC targets were then calculated for each strain. […] The calculations were performed using both total and free drug concentrations. The coefficient of determination (R^2) was used to estimate the variance that might be due to regression with the PK/PD index. Kruskal-Wallis one-way analysis of variance (ANOVA) was used to determine if the differences in PK/PD targets were significant between the species.
# [3] = Monkey pharmacokinetics, SC and IV administration; format: in vivo, cynomolgus monkeys; conditions: for half-life / AUC(0-t) / Cmax / Tmax / AUC(0-inf): cynomolgus monkey, plasma
# Experimental: Therefore, only local tolerability (and PK) of CD101 by SC administration required evaluation. […] Plasma concentrations were then quantified by liquid chromatography with tandem mass spectrometric detection (LC-MS/MS). Bioavailability from SC dosing was calculated by comparing the calculated area under the concentration-time profile (AUC) from SC against the AUC from IV administration of the same dose.
# [4] = Median of 3 C. glabrata strains
# [5] = both sexes, sc, Subcutaneous, 30 mg/kg
# [6] = female, animal 9707, F, 30 mg/kg SC single dose
# [7] = male, animal 9697, M, 30 mg/kg SC single dose
compound,measurement,setting,value
"CCCCCOc1ccc(-c2ccc(-c3ccc(C(=O)N[C@H]4C[C@@H](O)[C@@H](OCC[N+](C)(C)C)NC(=O)C5C(O)[C@@H](C)CN5C(=O)[C@H]([C@@H](C)O)NC(=O)[C@H]([C@H](O)[C@@H](O)c5ccc(O)cc5)NC(=O)[C@@H]5C[C@@H](O)CN5C(=O)C(C(C)O)NC4=O)cc3)cc2)cc1 (stereo partly drawn) [CD101] ({pTerphenylCO(4''-OnC5H11)}-[Orn(4R-OH,5R-OCH2CH2NMe3+)][ξT][Hyp][hTyr(3S-OH,4S-OH)]T[X1]; lactam 1-C)",MIC,[1]; strain 5592,0.125 µg/mL
same,MIC,[1]; strain 10956 (FKS2_HS1_F659V),1 µg/mL
same,MIC,[1]; strain 35315,0.5 µg/mL
same,1 log kill 24 h Ave Free drug AUC/MIC,[2]; 5592,0.36
same,1 log kill free drug AUC0-168 h/MIC,[2]; 5592,2.54
same,1 log kill total drug AUC0-168 h/MIC,[2]; 5592,317.50
same,Stasis 24 h Ave free drug AUC/MIC,[2]; 5592,0.05
same,Stasis free drug AUC0-168 h/MIC,[2]; 5592,0.35
same,Stasis total drug AUC0-168 h/MIC,[2]; 5592,43.16
same,1 log kill dose,"[2]; 5592, single IP dose, 168 h",0.43 mg/kg
same,Static dose,"[2]; 5592, single IP dose, 168 h",0.06 mg/kg
same,1 log kill 24 h Ave Free drug AUC/MIC,[2]; 10956,1.20
same,1 log kill free drug AUC0-168 h/MIC,[2]; 10956,8.42
same,1 log kill total drug AUC0-168 h/MIC,[2]; 10956,1052.22
same,Stasis 24 h Ave free drug AUC/MIC,[2]; 10956,0.48
same,Stasis free drug AUC0-168 h/MIC,[2]; 10956,3.35
same,Stasis total drug AUC0-168 h/MIC,[2]; 10956,418.68
same,1 log kill dose,"[2]; 10956, single IP dose, 168 h",17.25 mg/kg
same,Static dose,"[2]; 10956, single IP dose, 168 h",6.29 mg/kg
same,1 log kill 24 h Ave Free drug AUC/MIC,[2]; 35315,0.42
same,1 log kill free drug AUC0-168 h/MIC,[2]; 35315,2.94
same,1 log kill total drug AUC0-168 h/MIC,[2]; 35315,367.06
same,Stasis 24 h Ave free drug AUC/MIC,[2]; 35315,0.07
same,Stasis free drug AUC0-168 h/MIC,[2]; 35315,0.50
same,Stasis total drug AUC0-168 h/MIC,[2]; 35315,62.50
same,1 log kill dose,"[2]; 35315, single IP dose, 168 h",2.39 mg/kg
same,Static dose,"[2]; 35315, single IP dose, 168 h",0.34 mg/kg
same,1 log kill 24 h Ave Free drug AUC/MIC,[2]; Mean of 3 C. glabrata strains,0.66
same,1 log kill dose,[2]; Mean of 3 C. glabrata strains,6.69 mg/kg
same,1 log kill free drug AUC0-168 h/MIC,[2]; Mean of 3 C. glabrata strains,4.63
same,1 log kill total drug AUC0-168 h/MIC,[2]; Mean of 3 C. glabrata strains,578.93
same,Stasis 24 h Ave free drug AUC/MIC,[2]; Mean of 3 C. glabrata strains,0.20
same,Stasis free drug AUC0-168 h/MIC,[2]; Mean of 3 C. glabrata strains,1.40
same,Stasis total drug AUC0-168 h/MIC,[2]; Mean of 3 C. glabrata strains,174.78
same,Static dose,[2]; Mean of 3 C. glabrata strains,2.23 mg/kg
same,1 log kill 24 h Ave Free drug AUC/MIC,[2]; [4],0.42
same,1 log kill dose,[2]; [4],2.39 mg/kg
same,1 log kill free drug AUC0-168 h/MIC,[2]; [4],2.94
same,1 log kill total drug AUC0-168 h/MIC,[2]; [4],367.06
same,Stasis 24 h Ave free drug AUC/MIC,[2]; [4],0.07
same,Stasis free drug AUC0-168 h/MIC,[2]; [4],0.5
same,Stasis total drug AUC0-168 h/MIC,[2]; [4],62.50
same,Static dose,[2]; [4],0.34 mg/kg
same,kill at high doses,"[2]; a number of strains, kidney burden, 168 h",> 2 log10
same,free AUC/MIC targets lower than the three comparator echinocandins,[2]; in vivo,> 10 fold
same,time at which maximum plasma concentration was reached,[3]; 30 mg/kg SC,> 24 h
same,bioavailability (SC vs IV total exposure over 10 days),[3]; 30 mg/kg SC vs IV,80%
same,half-life,"[3]; both sexes, sc, 30 mg/kg, Subcutaneous",~124 h
same,AUC(0-t),[3]; [5],2460 µg·h/mL
same,Cmax,[3]; [5],13400 ng/mL
same,Tmax,[3]; [5],72 h
same,AUC(0-inf),"[3]; both sexes, sc, Subcutaneous, 30 mg/kg, read-out: AUCinf",3520 µg·h/mL
same,AUC(0-t),"[3]; iv, 30 mg/kg",3140 µg·h/mL
same,Cmax,"[3]; iv, 30 mg/kg",112000 ng/mL
same,Tmax,"[3]; iv, 30 mg/kg",1 h
same,half-life,"[3]; iv, 30 mg/kg",49.7 h
same,AUC(0-inf),"[3]; iv, 30 mg/kg, read-out: AUCinf",3340 µg·h/mL
same,half-life,"[3]; female, sc, 30 mg/kg, animal 9707, F, 30 mg/kg SC single dose",171 h
same,AUC(0-t),[3]; [6],2180 µg·h/mL
same,Cmax,[3]; [6],10900 ng/mL
same,Tmax,[3]; [6],48 h
same,AUC(0-inf),"[3]; female, animal 9707, F, 30 mg/kg SC single dose, read-out: AUCINF_obs",3760 µg·h/mL
same,half-life,"[3]; male, sc, 30 mg/kg, animal 9697, M, 30 mg/kg SC single dose",76.2 h
same,AUC(0-t),[3]; [7],2740 µg·h/mL
same,Cmax,[3]; [7],15900 ng/mL
same,Tmax,[3]; [7],96 h
same,AUC(0-inf),"[3]; male, animal 9697, M, 30 mg/kg SC single dose, read-out: AUCINF_obs",3280 µg·h/mL
